Measurements from patent US10654814B2, “Bicyclic hydroxamic acids useful as inhibitors of mammalian histone deacetylase activity” (KANCERA AB, priority 2015, dated 2020).
Counter-ions that a name gives are not always drawn.

Target: HDAC6 (Homo sapiens (Human), UniProt Q9UBN7)
Experiment: HDAC6 in vitro enzymatic assay (fluorescence)
Type: biochemical
Details: Table 3; read-out: IC50 (nM) for inhibition of HDAC6
Procedure: Biological Tests Method for Measurement of Enzymatic Activity of HDACs Materials & Methods
All Examples were tested in HDAC1,2,3,6 and 8 in vitro enzymatic assays. The assay principle is well known (Hauser et al. 2009, Bradner et al. 2010) and all necessary reagents like enzymes, substrates, developer and reference compounds are commercially available (see e.g. BPS Biosciences http://www.bpsbioscience.com/). Stock solutions (10 mM in DMSO) of compounds were serially diluted 1:3 in 11 concentrations with a top concentration of 200 μM for HDAC1,2,3 and 2 μM for HDAC6 and HDAC8. The enzymatic reactions were conducted in a mixture containing assay buffer, bovine serum albumin, HDAC substrate, and a test compound. After enzymatic reaction, developer was added and after an additional incubation time, fluorescence intensity was measured at an excitation wavelength of 360 nm and an emission wavelength of 460 nm. All experiments were performed in duplicate.

Chain of HDAC6 (Q9UBN7 whole entry): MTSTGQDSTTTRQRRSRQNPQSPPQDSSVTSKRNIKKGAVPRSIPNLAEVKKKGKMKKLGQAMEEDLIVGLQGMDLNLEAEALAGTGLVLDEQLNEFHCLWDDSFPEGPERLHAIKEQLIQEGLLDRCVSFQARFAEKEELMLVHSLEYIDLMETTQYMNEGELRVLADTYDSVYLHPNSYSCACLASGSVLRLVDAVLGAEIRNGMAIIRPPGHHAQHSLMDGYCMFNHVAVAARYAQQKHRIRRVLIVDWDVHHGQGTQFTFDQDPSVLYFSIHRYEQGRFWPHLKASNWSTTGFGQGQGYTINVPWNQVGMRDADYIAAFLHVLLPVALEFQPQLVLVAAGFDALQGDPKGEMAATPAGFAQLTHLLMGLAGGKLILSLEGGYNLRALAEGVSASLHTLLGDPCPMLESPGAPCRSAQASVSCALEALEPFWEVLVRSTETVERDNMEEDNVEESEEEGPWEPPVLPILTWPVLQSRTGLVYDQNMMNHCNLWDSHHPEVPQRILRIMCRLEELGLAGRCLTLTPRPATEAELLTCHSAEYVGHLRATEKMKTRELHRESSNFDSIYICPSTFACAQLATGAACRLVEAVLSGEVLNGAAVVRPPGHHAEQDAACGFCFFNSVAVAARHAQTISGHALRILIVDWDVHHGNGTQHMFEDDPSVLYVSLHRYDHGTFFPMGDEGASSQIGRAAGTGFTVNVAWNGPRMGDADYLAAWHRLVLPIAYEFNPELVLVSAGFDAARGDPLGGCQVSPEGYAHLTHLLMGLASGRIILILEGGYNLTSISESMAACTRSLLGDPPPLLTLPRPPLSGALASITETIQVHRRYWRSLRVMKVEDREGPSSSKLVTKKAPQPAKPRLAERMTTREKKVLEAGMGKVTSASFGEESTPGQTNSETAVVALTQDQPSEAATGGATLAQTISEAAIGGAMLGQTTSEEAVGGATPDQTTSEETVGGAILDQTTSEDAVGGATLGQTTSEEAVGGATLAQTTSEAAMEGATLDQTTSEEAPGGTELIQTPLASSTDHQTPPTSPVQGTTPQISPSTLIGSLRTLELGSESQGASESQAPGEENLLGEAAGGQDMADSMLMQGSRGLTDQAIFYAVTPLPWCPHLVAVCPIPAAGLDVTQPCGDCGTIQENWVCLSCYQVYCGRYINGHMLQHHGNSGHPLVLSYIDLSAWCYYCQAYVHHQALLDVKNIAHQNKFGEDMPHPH

Row | SMILES | IC50
1 | O=C(NO)c1ccc2oc(-c3ccc(Br)cc3)nc2c1 [Example 2, 2-(4-bromophenyl)-N-hydroxy-1,3-benzoxazole-5-carboxamide] | 4 nM
2 | O=C(NO)c1ccc2oc(-c3ccc(F)c(F)c3)nc2c1 [Example 5, 2-(3,4-difluorophenyl)-N-hydroxy-1,3-benzoxazole-5-carboxamide] | 36 nM
3 | O=C(NO)c1ccc2oc(-c3ccccc3)nc2c1 [Example 7, N-hydroxy-2-phenyl-1,3-benzoxazole-5-carboxamide] | 15 nM
4 | O=C(NO)c1ccc2oc(-c3ccc4c(c3)OCO4)nc2c1 [Example 8, 2-(1,3-benzodioxo1-5-yl)-N-hydroxy-1,3-benzoxazole-5-carboxamide] | 14 nM
5 | COc1ccc(-c2nc3cc(C(=O)NO)ccc3o2)cc1 [Example 11, N-hydroxy-2-(4-methoxyphenyl)-1,3-benzoxazole-5-carboxamide] | 8 nM
6 | O=C(NO)c1ccc2oc(-c3ccc(N4CCOCC4)nc3)nc2c1 [Example 15, N-hydroxy-2-(6-morpholin-4-ylpyridin-3-yl)-1,3-benzoxazole-5-carboxamide] | 28 nM
7 | O=C(NO)c1ccc2oc(-c3cccc(Br)c3)nc2c1 [Example 16, 2-(3-bromophenyl)-N-hydroxy-1,3-benzoxazole-5-carboxamide] | 7 nM
8 | O=C(NO)c1ccc2oc(-c3ccc(-c4ccncc4)cc3)nc2c1 [Example 22, N-hydroxy-2-(4-pyridin-4-ylphenyl)-1,3-benzoxazole-5-carboxamide] | 13 nM
9 | O=C(NO)c1ccc2oc(-c3ccc(-c4cccnc4)cc3)nc2c1 [Example 23, N-hydroxy-2-(4-pyridin-3-ylphenyl)-1,3-benzoxazole-5-carboxamide] | 11 nM
10 | O=C(NO)c1ccc2oc(-c3ccc(-c4ccc(CN5CCCCC5)cc4)cc3)nc2c1 [Example 30, N-Hydroxy-2-[4′-(piperidin-1-ylmethyl)biphenyl-4-yl]-1,3-benzoxazole-5-carboxamide trifluoroacetate] | 14 nM
11 | CCN(CC)c1ccc(-c2nc3cc(C(=O)NO)ccc3o2)cc1 [Example 33, 2-[4-(Diethylamino)phenyl]-N-hydroxy-1,3-benzoxazole-5-carboxamide trifluoroacetate] | 22 nM
12 | N#Cc1ccc(-c2nc3cc(C(=O)NO)ccc3o2)cc1 [Example 36, 2-(4-Cyanophenyl)-N-hydroxy-1,3-benzoxazole-5-carboxamide] | 56 nM
13 | O=C(NO)c1ccc2oc(-c3ccc4[nH]nnc4c3)nc2c1 [Example 39, 2-(1H-Benzotriazol-5-yl)-N-hydroxy-1,3-benzoxazole-5-carboxamide] | 26 nM
14 | Cc1ncccc1-c1nc2cc(C(=O)NO)ccc2o1 [Example 40, N-Hydroxy-2-(2-methylpyridin-3-yl)-1,3-benzoxazole-5-carboxamide trifluoroacetate] | 54 nM
15 | O=C(NO)c1ccc2oc(-c3ccc(N4CCCC4)nc3)nc2c1 [Example 41, N-Hydroxy-2-(6-pyrrolidin-1-ylpyridin-3-yl)-1,3-benzoxazole-5-carboxamide trifluoroacetate] | 22 nM
16 | O=C(NO)c1ccc2oc(Nc3ccccc3)nc2c1 [Example 42, N-Hydroxy-2-(phenylamino)-1,3-benzoxazole-5-carboxamide] | 14 nM
17 | CN(Cc1ccccc1)c1nc2cc(C(=O)NO)ccc2o1 [Example 44, 2-[benzyl(methyl)amino]-N-hydroxy-1,3-benzoxazole-5-carboxamide] | 63 nM
18 | O=C(NO)c1ccc2oc(NCCc3ccccc3)nc2c1 [Example 45, N-hydroxy-2-[(2-phenylethyl)amino]-1,3-benzoxazole-5-carboxamide] | 21 nM
19 | O=C(NO)c1ccc2oc(N3CCc4ccccc4C3)nc2c1 [Example 46, 2-(3,4-dihydroisoquinolin-2(1H)-yl)-N-hydroxy-1,3-benzoxazole-5-carboxamide] | 48 nM
20 | O=C(NO)c1ccc2oc(Nc3cccc(OCc4ccccc4)c3)nc2c1 [Example 47, 2-{[3-(benzyloxy)phenyl]amino}-N-hydroxy-1,3-benzoxazole-5-carboxamide] | 31 nM
21 | O=C(NO)c1ccc2oc(N3CCC(Cc4ccccc4)CC3)nc2c1 [Example 48, 2-(4-benzylpiperidin-1-yl)-N-hydroxy-1,3-benzoxazole-5-carboxamide] | 73 nM
22 | O=C(NO)c1ccc2nc(-c3ccc(-c4cccnc4)nc3)oc2c1 [Example 55, 2-(2,3′-Bipyridin-5-yl)-N-hydroxy-1,3-benzoxazole-6-carboxamide trifluoroacetate] | 81 nM

The remaining lines, values ahead:

Row | IC50 | SMILES
23 | 9 nM | CC(C)c1ccc(-c2nc3ccc(C(=O)NO)cc3o2)cc1 [Example 49, N-Hydroxy-2-[4-(1-methylethyl)phenyl]-1,3-benzoxazole-6-carboxamide]
24 | 34 nM | O=C(NO)c1ccc2nc(-c3ccc(F)cc3)oc2c1 [Example 50, 2-(4-Fluorophenyl)-N-hydroxy-1,3-benzoxazole-6-carboxamide]
25 | 22 nM | CC(C)(C)c1ccc(-c2nc3ccc(C(=O)NO)cc3o2)cc1 [Example 51, 2-(4-tert-butylphenyl)-N-hydroxy-1,3-benzoxazole-6-carboxamide]
26 | 17 nM | COc1ccc(-c2nc3ccc(C(=O)NO)cc3o2)cc1 [Example 52, N-hydroxy-2-(4-methoxyphenyl)-1,3-benzoxazole-6-carboxamide]
27 | 60 nM | O=C(NO)c1ccc2nc(-c3ccc4[nH]nnc4c3)oc2c1 [Example 54, 2-(1H-Benzotriazol-5-yl)-N-hydroxy-1,3-benzoxazole-6-carboxamide]
28 | 11 nM | CC(C)c1ccc(-c2nc3ncc(C(=O)NO)cc3[nH]2)cc1 [Example 57, N-Hydroxy-2-[4-(1-methylethyl)phenyl]-1H-imidzo[4,5-b]pyridine-6-carboxamide]
29 | 62 nM | CC(C)c1ccc(-c2cc3cc(C(=O)NO)ccc3[nH]2)cc1 [Example 60, N-Hydroxy-2-[4-(1-methylethyl)phenyl]-1H-indole-5-carboxamide]
30 | 12 nM | COc1ccc(-c2nc3cc(C(=O)NO)ccc3s2)cc1 [Example 78, N-hydroxy-2-(4-methoxyphenyl)-1,3-benzothiazole-5-carboxamide]
31 | 7 nM | O=C(NO)c1ccc2sc(Cc3ccc(F)cc3)nc2c1 [Example 79, 2-(4-fluorobenzyl)-N-hydroxy-1,3-benzothiazole-5-carboxamide]
32 | 30 nM | O=C(NO)c1ccc2sc(-c3cncc(Br)c3)nc2c1 [Example 80, 2-(5-Bromopyridin-3-yl)-N-hydroxy-1,3-benzothiazole-5-carboxamide]
33 | 33 nM | COc1cccc2cc(-c3nc4cc(C(=O)NO)ccc4s3)oc12 [Example 81, N-Hydroxy-2-(7-methoxy-1-benzofuran-2-yl)-1,3-benzothiazole-5-carboxamide]
34 | 11 nM | CCc1ccc(-c2nc3cc(C(=O)NO)ccc3s2)cc1 [Example 82, 2-(4-Ethylphenyl)-N-hydroxy-1,3-benzothiazole-5-carboxamide]
35 | 25 nM | CC(C)c1ccc(-c2nc3cc(C(=O)NO)cnc3o2)cc1 [Example 83, N-Hydroxy-2-[4-(1-methylethyl)phenyl][1,3]oxazolo[5,4-b]pyridine-6-carboxamide]
36 | 19 nM | CC(C)c1ccc(-c2cc3cc(C(=O)NO)cnc3[nH]2)cc1 [Example 84, N-Hydroxy-2-[4-(1-methylethyl)phenyl]-1H-pyrrolo[2,3-b]pyridine-5-carboxamide]
37 | 42 nM | CC(C)c1ccc(-c2cc3cc(C(=O)NO)cnc3s2)cc1 [Example 87, N-Hydroxy-2-[4-(1-methylethyl)phenyl]thieno[2,3-b]pyridine-5-carboxamide]
38 | 9 nM | COc1ccc(-c2cc3cc(C(=O)NO)ccc3s2)cc1 [Example 93, N-hydroxy-2-(4-methoxyphenyl)-1-benzothiophene-5-carboxamide]
39 | 22 nM | O=C(NO)c1ccc2sc(-c3ccc4[nH]ccc4c3)cc2c1 [Example 95, N-hydroxy-2-(1H-indol-5-yl)-1-benzothiophene-5-carboxamide]
40 | 47 nM | COc1ncccc1-c1cc2cc(C(=O)NO)ccc2s1 [Example 97, N-hydroxy-2-(2-methoxypyridin-3-yl)-1-benzothiophene-5-carboxamide]
41 | 16 nM | Cn1cc(-c2cc3cc(C(=O)NO)ccc3s2)cn1 [Example 99, N-hydroxy-2-(1-methyl-1H-pyrazol-4-yl)-1-benzothiophene-5-carboxamide]
42 | 37 nM | O=C(NO)c1ccc2sc(-c3cc(F)ccc3O)cc2c1 [Example 105, 2-(5-fluoro-2-hydroxyphenyl)-N-hydroxy-1-benzothiophene-5-carboxamide]
43 | 86 nM | COc1ccc(F)cc1-c1cc2cc(C(=O)NO)ccc2s1 [Example 106, 2-(5-fluoro-2-methoxyphenyl)-N-hydroxy-1-benzothiophene-5-carboxyamide]
44 | 35 nM | CN(C)C(=O)c1ccc(-c2cc3cc(C(=O)NO)ccc3s2)cc1 [Example 108, 2-[4-(dimethylcarbamoyl)phenyl]-N-hydroxy-1-benzothiophene-5-carboxamide]
45 | 86 nM | CS(=O)(=O)Nc1ccc(-c2cc3cc(C(=O)NO)ccc3s2)cc1 [Example 109, N-hydroxy-2-{4-[(methylsulfonyl)amino]phenyl}-1-benzothiophene-5-carboxamide]
46 | 50 nM | CC(C)c1ccc(-c2cc3ncc(C(=O)NO)cc3s2)cc1 [Example 110, N-Hydroxy-2-[4-(1-methylethyl)phenyl]thieno[3,2-b]pyridine-6-carboxamide]
